Key:
OVCAR-4 = assay: NCI-60 one-dose screen, OVCAR-4; assay type: cell-based; settings: Homo sapiens; OVCAR-4, ovarian cancer; single dose 10 μM; read-out: Growth inhibition %
Method: (§1) Anti-proliferative effects of the counterparts 4a–g and 5a–g were screened against 60 human cancer cell lines, following the Developmental Therapeutics Program protocol, National Cancer Institute[35].
(§2) The anti-tumour activity of the fourteen synthesised congeners was investigated at the NCI against a panel of 60 cancer cell lines (NCI-60 Cell One-Dose Screen). The tested dibenzo[b,f]azepine derivatives were screened at a single dose level (10 μM), Table 1.

NCI-H23 = assay: NCI-60 one-dose screen, NCI-H23; assay type: cell-based; settings: Homo sapiens; NCI-H23, non-small cell lung cancer; single dose 10 μM; read-out: Growth inhibition %
Method: as §1, §2

NCI/ADR-RES = assay: NCI-60 one-dose screen, NCI/ADR-RES; assay type: cell-based; settings: Homo sapiens, ovarian cancer, single dose 10 μM, read-out: Growth inhibition %
Method: as §1, §2

OVCAR-3 = assay: NCI-60 one-dose screen, OVCAR-3; assay type: cell-based; settings: Homo sapiens; OVCAR-3, ovarian cancer; single dose 10 μM; read-out: Growth inhibition %
Method: as §1, §2

HCT-116 = assay: NCI-60 one-dose screen, HCT-116; assay type: cell-based; settings: Homo sapiens; HCT-116, colon cancer; single dose 10 μM; read-out: Growth inhibition %
Method: as §1, §2

SK-MEL-5 = assay: NCI-60 one-dose screen, SK-MEL-5; assay type: cell-based; settings: Homo sapiens; SK-MEL-5, melanoma; single dose 10 μM; read-out: Growth inhibition %
Method: as §1, §2

OVCAR-5 = assay: NCI-60 one-dose screen, OVCAR-5; assay type: cell-based; settings: Homo sapiens; OVCAR-5, ovarian cancer; single dose 10 μM; read-out: Growth inhibition %
Method: as §1, §2

PC-3 = assay: NCI-60 one-dose screen, PC-3; assay type: cell-based; settings: Homo sapiens; PC-3, prostate cancer; single dose 10 μM; read-out: Growth inhibition %
Method: as §1, §2

MDA-MB-435 = assay: NCI-60 one-dose screen, MDA-MB-435; assay type: cell-based; settings: Homo sapiens; MDA-MB-435, melanoma; single dose 10 μM; read-out: Growth inhibition %
Method: as §1, §2

SR = assay: NCI-60 one-dose screen, SR; assay type: cell-based; settings: Homo sapiens, leukaemia, single dose 10 μM, read-out: Growth inhibition %
Method: as §1, §2

OVCAR-8 = assay: NCI-60 one-dose screen, OVCAR-8; assay type: cell-based; settings: Homo sapiens; OVCAR-8, ovarian cancer; single dose 10 μM; read-out: Growth inhibition %
Method: as §1, §2

SF-268 = assay: NCI-60 one-dose screen, SF-268; assay type: cell-based; settings: Homo sapiens; SF-268, CNS cancer; single dose 10 μM; read-out: Growth inhibition %
Method: as §1, §2

DU-145 = assay: NCI-60 one-dose screen, DU-145; assay type: cell-based; settings: Homo sapiens; DU-145, prostate cancer; single dose 10 μM; read-out: Growth inhibition %
Method: as §1, §2

HCT-15 = assay: NCI-60 one-dose screen, HCT-15; assay type: cell-based; settings: Homo sapiens; HCT-15, colon cancer; single dose 10 μM; read-out: Growth inhibition %
Method: as §1, §2

CCRF-CEM = assay: NCI-60 one-dose screen, CCRF-CEM; assay type: cell-based; settings: Homo sapiens, leukaemia, single dose 10 μM, read-out: Growth inhibition %
Method: as §1, §2

COLO 205 = assay: NCI-60 one-dose screen, COLO 205; assay type: cell-based; settings: Homo sapiens; COLO 205, colon cancer; single dose 10 μM; read-out: Growth inhibition %
Method: as §1, §2

HS 578 T = assay: NCI-60 one-dose screen, HS 578 T; assay type: cell-based; settings: Homo sapiens, breast cancer, single dose 10 μM, read-out: Growth inhibition %
Method: as §1, §2

U251 = assay: NCI-60 one-dose screen, U251; assay type: cell-based; settings: Homo sapiens, U-251; U251, CNS cancer; single dose 10 μM; read-out: Growth inhibition %
Method: as §1, §2

MALME-3M = assay: NCI-60 one-dose screen, MALME-3M; assay type: cell-based; settings: Homo sapiens, melanoma, single dose 10 μM, read-out: Growth inhibition %
Method: as §1, §2

HOP-92 = assay: NCI-60 one-dose screen, HOP-92; assay type: cell-based; settings: Homo sapiens; HOP-92, non-small cell lung cancer; single dose 10 μM; read-out: Growth inhibition %
Method: as §1, §2

EKVX = assay: NCI-60 one-dose screen, EKVX; assay type: cell-based; settings: Homo sapiens, non-small cell lung cancer, single dose 10 μM, read-out: Growth inhibition %
Method: as §1, §2

NCI-H322M = assay: NCI-60 one-dose screen, NCI-H322M; assay type: cell-based; settings: Homo sapiens, non-small cell lung cancer, single dose 10 μM, read-out: Growth inhibition %
Method: as §1, §2

SW-620 = assay: NCI-60 one-dose screen, SW-620; assay type: cell-based; settings: Homo sapiens; SW-620, colon cancer; single dose 10 μM; read-out: Growth inhibition %
Method: as §1, §2

NCI-H460 = assay: NCI-60 one-dose screen, NCI-H460; assay type: cell-based; settings: Homo sapiens; NCI-H460, non-small cell lung cancer; single dose 10 μM; read-out: Growth inhibition %
Method: as §1, §2

RXF 393 = assay: NCI-60 one-dose screen, RXF 393; assay type: cell-based; settings: Homo sapiens; RXF 393, renal cancer; single dose 10 μM; read-out: Growth inhibition %
Method: as §1, §2

A549-ATCC = assay: NCI-60 one-dose screen, A549-ATCC; assay type: cell-based; settings: Homo sapiens, non-small cell lung cancer, single dose 10 μM, read-out: Growth inhibition %
Method: as §1, §2

UO-31 = assay: NCI-60 one-dose screen, UO-31; assay type: cell-based; settings: Homo sapiens; UO-31, renal cancer; single dose 10 μM; read-out: Growth inhibition %
Method: as §1, §2

TK-10 = assay: NCI-60 one-dose screen, TK-10; assay type: cell-based; settings: Homo sapiens; TK-10, renal cancer; single dose 10 μM; read-out: Growth inhibition %
Method: as §1, §2

T-47D = assay: NCI-60 one-dose screen, T-47D; assay type: cell-based; settings: Homo sapiens, T47D, breast cancer, single dose 10 μM, read-out: Growth inhibition %
Method: as §1, §2

UACC-257 = assay: NCI-60 one-dose screen, UACC-257; assay type: cell-based; settings: Homo sapiens; UACC-257, melanoma; single dose 10 μM; read-out: Growth inhibition %
Method: as §1, §2

ACHN = assay: NCI-60 one-dose screen, ACHN; assay type: cell-based; settings: Homo sapiens, renal cancer, single dose 10 μM, read-out: Growth inhibition %
Method: as §1, §2

IGROV1 = assay: NCI-60 one-dose screen, IGROV1; assay type: cell-based; settings: Homo sapiens, IGROV-1; IGROV1, ovarian cancer; single dose 10 μM; read-out: Growth inhibition %
Method: as §1, §2

MCF-7 = assay: NCI-60 one-dose screen, MCF-7; assay type: cell-based; settings: Homo sapiens, MCF7; MCF-7, breast cancer; single dose 10 μM; read-out: Growth inhibition %
Method: as §1, §2

CAKI-1 = assay: NCI-60 one-dose screen, CAKI-1; assay type: cell-based; settings: Homo sapiens; CAKI-1, renal cancer; single dose 10 μM; read-out: Growth inhibition %
Method: as §1, §2

SMILES	inhibition at 10 µM (OVCAR-4) [%]	inhibition at 10 µM (NCI-H23) [%]	inhibition at 10 µM (NCI/ADR-RES) [%]	inhibition at 10 µM (OVCAR-3) [%]	inhibition at 10 µM (HCT-116) [%]	inhibition at 10 µM (SK-MEL-5) [%]	inhibition at 10 µM (OVCAR-5) [%]	inhibition at 10 µM (PC-3) [%]	inhibition at 10 µM (MDA-MB-435) [%]	inhibition at 10 µM (SR) [%]	inhibition at 10 µM (OVCAR-8) [%]	inhibition at 10 µM (SF-268) [%]	inhibition at 10 µM (DU-145) [%]	inhibition at 10 µM (HCT-15) [%]	inhibition at 10 µM (CCRF-CEM) [%]	inhibition at 10 µM (COLO 205) [%]	inhibition at 10 µM (HS 578 T) [%]	inhibition at 10 µM (U251) [%]	inhibition at 10 µM (MALME-3M) [%]	melting point [°C]	also measured
Cc1ccc(C(=O)NNC(=O)N2c3ccccc3C=Cc3ccccc32)cc1 [Compound 4d, N′-(4-Methylbenzoyl)-5H-dibenzo[b,f]azepine-5-carbohydrazide]	< 10	< 10	< 10	< 10	< 10	< 10	< 10	< 10	< 10	< 10	< 10	< 10	< 10	< 10	< 10	< 10	< 10	< 10	< 10	151 to 153	inhibition at 10 µM (HOP-92): < 10%; inhibition at 10 µM (EKVX): < 10%; inhibition at 10 µM (NCI-H322M): < 10%; inhibition at 10 µM (SW-620): < 10%; inhibition at 10 µM (NCI-H460): < 10%; inhibition at 10 µM (RXF 393): < 10%; inhibition at 10 µM (A549-ATCC): < 10%; inhibition at 10 µM (UO-31): < 10%; inhibition at 10 µM (TK-10): 10.3%; inhibition at 10 µM (T-47D): < 10%; inhibition at 10 µM (UACC-257): < 10%; inhibition at 10 µM (ACHN): < 10%; inhibition at 10 µM (IGROV1): < 10%; inhibition at 10 µM (MCF-7): < 10%; inhibition at 10 µM (CAKI-1): < 10%
O=C(NNC(=O)N1c2ccccc2C=Cc2ccccc21)c1ccc([N+](=O)[O-])cc1 [Compound 4e, N′-(4-Nitrobenzoyl)-5H-dibenzo[b,f]azepine-5-carbohydrazide]	< 10	< 10	< 10	< 10	< 10	< 10	< 10	< 10	< 10	< 10	< 10	< 10	< 10	< 10	< 10	< 10	< 10	< 10	< 10	241 to 243	inhibition at 10 µM (HOP-92): < 10%; inhibition at 10 µM (EKVX): < 10%; inhibition at 10 µM (NCI-H322M): < 10%; inhibition at 10 µM (SW-620): < 10%; inhibition at 10 µM (NCI-H460): < 10%; inhibition at 10 µM (RXF 393): < 10%; inhibition at 10 µM (A549-ATCC): < 10%; inhibition at 10 µM (UO-31): < 10%; inhibition at 10 µM (TK-10): 10%; inhibition at 10 µM (T-47D): < 10%; inhibition at 10 µM (UACC-257): < 10%; inhibition at 10 µM (ACHN): < 10%; inhibition at 10 µM (IGROV1): < 10%; inhibition at 10 µM (MCF-7): < 10%; inhibition at 10 µM (CAKI-1): < 10%

Reference: article PMC9848257, “Design and synthesis of novel rigid dibenzo[b,f]azepines through ring closure technique as promising anticancer candidates against leukaemia and acting as selective topoisomerase II inhibitors and DNA intercalators” (Journal of Enzyme Inhibition and Medicinal Chemistry, 2023)
